pIC50: −log10 of the molar value.
What was measured:
Format in all cases: cell-based
[1] = Inhibition of TNF-alpha induced NFkappaB in human IB31 cells assessed as reduction in IL-8 mRNA expression preincubated for 5 hrs followed by TNF-alpha stimulation measured after 24 hrs by RT-qPCR analysis; settings: IB3-1
IB3-1 [2] = assay: Inhibition of TNF-alpha induced NFkappaB in human IB3-1 cells assessed as reduction in IL-8 mRNA expression at 10 uM preincubated for 5 hrs followed by TNF-alpha stimulation measured after 24 hrs by RT-qPCR analysis relative to control
IB3-1 [3] = assay: Inhibition of TNF-alpha induced NFkappaB in human IB3-1 cells assessed as reduction in IL-8 mRNA expression at 1 uM preincubated for 5 hrs followed by TNF-alpha stimulation measured after 24 hrs by RT-qPCR analysis relative to control

Structure (SMILES)	pIC50 [1]	inhibition (IB3-1 [2]) [%]	inhibition (IB3-1 [3]) [%]
CCc1cc2c(C(C)C)cc(=O)oc2c2c(C)coc12	5.13		
Cc1cc2c(C)cc3oc(=O)cc(C)c3c2o1		81	68
CCc1cc(=O)oc2c1cc(C)c1occ(C)c12	5.10		
Cc1cc2c(C(C)C)cc(=O)oc2c2c(C)coc12	4.72		
CCc1cc2c(C)cc(=O)oc2c2c(C)coc12	4.62		
CCc1cc(=O)oc2c1cc(CC)c1occ(C)c12	4.75		
Cc1oc2c(c(C)cc3oc(=O)cc(C)c32)c1C		47	66
Cc1oc2c(C)cc3c(C)cc(=O)oc3c2c1C		56	57
CCCc1cc(=O)oc2c1cc(CC)c1occ(C)c12	4.70		
CCCc1cc(=O)oc2c1cc(C)c1occ(C)c12	4.66		
Cc1cc2c(CO)cc(=O)oc2c2c(C)coc12		52	51
Cc1coc2c1c(C)cc1oc(=O)cc(C)c12		52	73
Cc1cc(=O)oc2c1ccc1oc(CN)cc12		83	55

— ChEMBL document CHEMBL4406814, “Furocoumarins as multi-target agents in the treatment of cystic fibrosis” (Eur J Med Chem, 2019)
